In EP3643310B1, “COMPOSITION FOR REVERSE CONTROL OF CELLULAR SENESCENCE COMPRISING PDK1 INHIBITOR” (Korea Advanced Institute Of Science And Technology, priority 2018, dated 2020):

Assays:
Format in all cases: cell-based, human
senescent fibroblasts [1] = assay: wound healing assay; settings: same senescence/inhibitor conditions; growth-condition medium for 7 days; FIG. 4B
Method: To determine whether the senescent cells subjected to the PDK1 inhibition are reverted to normal young cells, the PDX1 inhibitor BX-795 (Selleckchem) was applied to the senescent fibroblasts. Then, SA β-gal activity assay (senescence-associated β-galactosidase kit), wound healing assay, and fluorescence staining experiments were performed. Thus, the cell cycle change in the senescent cells based on PDK1 Inhibition was checked. Specifically, cellular senescence was caused by exposing the cells for 7 days to culture conditions causing senescence, containing 100 ng/ml of IGF1, 100 ng/ml of doxorubicin, 10 % FBS, and 4.5 g/L of glucose. At this time, most of the cells turned senescent. Then, the PDK1 inhibitor was applied to the same culture condition for 7 days. Total 14 days of the application lapsed. Then, the cells were treated with growth media free of IGF1, doxorubicin, or PDK1 inhibitor. The wound healing assay was performed under the same conditions. Ki-67 expression was analyzed to evaluate the division activity of the cells and the results are shown in 4C.

senescent fibroblasts [2] = assay: SA β-gal activity assay (senescence-associated β-galactosidase kit)
Method: (§1) To determine whether the senescent cells subjected to the PDK1 inhibition are reverted to normal young cells, the PDX1 inhibitor BX-795 (Selleckchem) was applied to the senescent fibroblasts. Then, SA β-gal activity assay (senescence-associated β-galactosidase kit), wound healing assay, and fluorescence staining experiments were performed. Thus, the cell cycle change in the senescent cells based on PDK1 Inhibition was checked.
(§2) Specifically, cellular senescence was caused by exposing the cells for 7 days to culture conditions causing senescence, containing 100 ng/ml of IGF1, 100 ng/ml of doxorubicin, 10 % FBS, and 4.5 g/L of glucose. At this time, most of the cells turned senescent. Then, the PDK1 inhibitor was applied to the same culture condition for 7 days. Total 14 days of the application lapsed. […] Ki-67 expression was analyzed to evaluate the division activity of the cells and the results are shown in 4C.
(§3) In order to check whether the same result occurs when other PDK1 inhibitors are used, SA β-gal activity assay was performed in the same manner using PDK1 inhibitor 7. […] Therefore, the number of bluestained senescent cells as SA β-gal activity assay-positive and the total number of cells were counted using an optical microscope. […] In addition, fluorescence staining experiments were performed to check the expression of the cell proliferation marker ki-67.

senescent fibroblasts [3] = assay: ki-67 fluorescence staining (cell division/proliferation marker)
Method: as §1, §2, §3

| SMILES | cell rejuvenation ability of the senescent cells (wound healing) (senescent fibroblasts [1]) | SA β-gal as an indicator of senescent cells (senescent fibroblasts [2]; senescence induced 7 days with IGF1 100 ng/ml + doxorubicin 100 ng/ml, PDK1 inhibitor applied 7 days, assay one day after change to growth media, FIG. 4A) | ki-67 staining, cell division (senescent fibroblasts [3]; cells treated with growth medium at 7 days after the drug application, FIG. 4C) | reduction of SA β-gal stained cells compared with the PDK1 inhibitor non-treated group (senescent fibroblasts [2]; percentage of blue-stained senescent cells counted by optical microscope, statistically significant, FIG. 5A, 5B) | increase of the number of ki-67 positive cells (senescent fibroblasts [3]; PDK1 inhibitor applied to senescent cells, FIG. 5C, 5D) |
| --- | --- | --- | --- | --- | --- |
| O=C(NCCCNc1nc(Nc2cccc(NC(=O)N3CCCC3)c2)ncc1I)c1cccs1 [BX-795] | normalized | significantly reduced | cell division occurred in some of the cells | – | – |
| O=C(N[C@@H](COc1ccc2[nH]c(=O)[nH]c2c1)c1ccccc1)c1cccn(Cc2ccc(F)c(F)c2)c1=O [PDK1 inhibitor 7] | – | – | – | ≥ 40% | ≥ 20% |
